Laboratory results as given in ChEMBL document CHEMBL1157648, “Structural-based design and synthesis of novel 9-deazaguanine derivatives having a phosphate mimic as multi-substrate analogue inhibitors for mammalian PNPs” (Bioorg Med Chem, 2010).
Several values for one entry are separate records, joined by “and”; a condition that tells them apart may be missing. Equal values may be shown once. Each block holds one molecule with its values, some of them ahead of it. Activity calls are given as the source filed them. The calls are words filed in the database; no cut-off is given here.

Legend:
[1] = Dissociation constant, pKa at 2 mg by spectrophotometry
[2] = molecular target: T1, Purine nucleoside phosphorylase (Homo sapiens, UniProt P00491); assay: Inhibition of human erythrocyte PNP assessed as inhibition of 25 uM 7-methylguanosine phosphorolysis by spectrophotometry in presence of 1 mM inorganic phosphate
T1 sequence (P00491 whole entry): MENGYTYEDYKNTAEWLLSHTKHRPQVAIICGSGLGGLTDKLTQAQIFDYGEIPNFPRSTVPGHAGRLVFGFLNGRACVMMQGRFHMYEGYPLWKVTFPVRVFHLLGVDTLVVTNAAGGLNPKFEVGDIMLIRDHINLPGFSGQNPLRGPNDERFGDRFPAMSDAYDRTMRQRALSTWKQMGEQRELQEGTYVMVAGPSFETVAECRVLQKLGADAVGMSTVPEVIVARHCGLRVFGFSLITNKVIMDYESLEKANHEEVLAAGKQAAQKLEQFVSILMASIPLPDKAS

[3] = molecular target: T2, Purine nucleoside phosphorylase (Bos taurus) (UniProt P55859); conditions: Spleen
T2 sequence (whole entry): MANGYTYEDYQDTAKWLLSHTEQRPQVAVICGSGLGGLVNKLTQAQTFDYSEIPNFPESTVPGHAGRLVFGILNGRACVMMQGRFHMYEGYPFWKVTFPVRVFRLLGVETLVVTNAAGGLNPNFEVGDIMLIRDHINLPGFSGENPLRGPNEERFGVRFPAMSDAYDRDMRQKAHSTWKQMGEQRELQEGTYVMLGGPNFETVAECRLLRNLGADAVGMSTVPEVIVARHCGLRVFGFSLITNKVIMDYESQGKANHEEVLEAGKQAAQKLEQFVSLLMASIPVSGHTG

[4] = molecular target: T3, Purine nucleoside phosphorylase (Homo sapiens) (UniProt P00491); conditions: 4.99 to 18.71 uM
T3 sequence (whole entry): T1 sequence (P00491 whole entry)

[5] = molecular target: T4, Purine nucleoside phosphorylase (Bos taurus, UniProt P55859)
T4 sequence (P55859 whole entry): T2 sequence (whole entry)

[6] = molecular target: T2, Purine nucleoside phosphorylase (Bos taurus); conditions: Spleen; remark: listed apart in the source
[7] = molecular target: T4, Purine nucleoside phosphorylase; assay: Inhibition of calf spleen PNP assessed as inhibition of 7-methylguanosine phosphorolysis after 50 mins by spectrophotometry in presence of 1 mM inorganic phosphate; conditions: read-out: Ki(app)
[8] = molecular target: T1, Purine nucleoside phosphorylase; assay: Inhibition of human erythrocyte PNP assessed as inhibition of 7-methylguanosine phosphorolysis after 50 mins by spectrophotometry in presence of 1 mM inorganic phosphate; conditions: read-out: Ki(app)

SMILES: CCOP(=O)(OCC)C(F)(F)CCCc1c[nH]c2c(=O)[nH]c(N)nc12
- IC50 [2]: 170 nM

SMILES: O=c1[nH]cnc2c([C@@H]3N[C@H](CO)[C@@H](O)[C@H]3O)c[nH]c12 [FORODESINE]
- Ki [5]: 41 nM
- Kieq [6]: 0.023 nM

SMILES: Nc1nc2c(CCCCCCCC(F)(F)P(=O)(O)O)c[nH]c2c(=O)[nH]1
- Ki [7]: 6.1 nM and 0.94 nM
- Ki [8]: 5.6 nM

SMILES: Nc1nc(O)c2ncn(CCCCC(F)(F)P(=O)(O)O)c2n1
- Kieq [3]: 0.72 nM

Continued, values first:

- pKa [1]: 10.6
SMILES: Cn1c(N)nc2ccn(C)c2c1=O

- pKa [1]: 5.1
SMILES: Cn1c(N)nc2cc[nH]c2c1=O

- Kieq [3]: 0.085 nM
- inhibition [4]: Active
SMILES: Nc1nc2c(CCCCC(F)(F)P(=O)(O)O)c[nH]c2c(=O)[nH]1
